Source: US20220251141A1, “IMMUNOMODULATORS” (Bristol-Myers Squibb Company, priority 2019, published 2022)
Numbered stars: 1 amine (or outer) side, 2 acyl side, 3 side chain; on linkers, the order of the positions; unused ones are H or OH. Bridge positions count the residues as written; N and C are the ends. Square brackets hold non-standard residues; d marks the D form. Side chains are listed from the residue outwards. Peptide text beside a SMILES is read from it. * marks the point of attachment. Trp(1-CH2CO2Me) = COC(=O)Cn1cc(C[C@H](N)C(=O)O)c2ccccc21; Trp(1-CH2COOH) = N[C@@H](Cc1cn(CC(=O)O)c2ccccc12)C(=O)O; NHCH2CH2Ph(3,4-OCH2O) = c1cc2c(cc1CCN*)OCO2; X12 = CNC(=S)NCC[C@H](N[*:1])C(=O)[*:2]; X11 = CNC(=S)NC[C@H](N[*:1])C(=O)[*:2]; Dab(CONH2) = NC(=O)NCC[C@H](N)C(=O)O; NHCHPh2 = c1ccc(C(N*)c2ccccc2)cc1; Hyp = O=C(O)[C@@H]1C[C@@H](O)CN1; NMeNle = CCCC[C@H](NC)C(=O)O; NMeA = CN[C@@H](C)C(=O)O; Dab = NCC[C@H](N)C(=O)O; Dap = NC[C@H](N)C(=O)O; NH(heptyl) = CCCCCCCN*; CO = O=C([*:1])[*:2]; N(Me)OMe = CON(C)*; X1 = CC(=O)NC(=O)*

Biological target: T1, PD-1/PD-L1 (Homo sapiens, UniProt Q9NZQ7)
T1 construct: TVMV protease site linker (C); made in house; host or cells: HEK293T cells
Assay: PD-1/PD-L1 Homogenous Time-Resolved Fluorescence (HTRF) binding assay
Conditions: PD-L1-His 10 nM final, PD-1-Ig 20 nM final; inhibitors pre-incubated with PD-L1-His for 15 m
From the text: The ability of the compounds of formula (I) to bind to PD-L1 was investigated using a PD-1/PD-L1 Homogenous Time-Resolved Fluorescence (HTRF) binding assay.
The interaction of PD-1 and PD-L1 can be assessed using soluble, purified preparations of the extracellular domains of the two proteins. The PD-1 and PD-L1 protein extracellular domains were expressed as fusion proteins with detection tags, for PD-1, the tag was the Fc portion of Immunoglobulin (PD-1-Ig) and for PD-L1 it was the 6 histidine motif (PD-L1-His). All binding studies were performed in an HTRF assay buffer consisting of dPBS supplemented with 0.1% […] bovine serum albumin and 0.05% (v/v) Tween-20. For the h/PD-L1-His binding assay, inhibitors were pre-incubated with PD-L1-His (10 nM final) for 15 m in 4 μl of assay buffer, followed by addition of PD-1-Ig (20 nM final) in 1 μl of assay buffer and further incubation for 15 m. HTRF detection was achieved using europium cryptate-labeled anti-Ig (1 nM final) and allophycocyanin (APC) labeled anti-His (20 nM final). Antibodies were diluted in HTRF detection buffer and 5 μl was dispensed on top of the binding reaction. The reaction mixture was allowed to equilibrate for 30 minutes and the resulting signal (665 nm/620 nm ratio) was obtained using an EnVision fluorometer. Additional binding assays were established between the human proteins PD-1-Ig/PD-L2-His (20 & 5 nM, respectively) and CD80-His/PD-L1-Ig (100 & 10 nM, respectively).
Recombinant Proteins: Human PD-1 (25-167) with a C-terminal human Fc domain of immunoglobulin G (Ig) epitope tag [hPD-1 (25-167)-3S-IG] and human PD-L1 (18-239) with a C-terminal His epitope tag [hPD-L1(18-239)-TVMV-His] were expressed in HEK293T cells and purified sequentially by Protein A affinity chromatography and size exclusion chromatography. Human PD-L2-His and CD80-His was obtained through commercial sources.
Table 3 lists the IC50 values for representative examples of this disclosure measured in the PD-1/PD-L1 Homogenous Time-Resolved Fluorescence (HTRF) binding assay.

Compound | IC50 [nM]
CCCC[C@H]1C(=O)N(C)[C@@H](CCCC)C(=O)N[C@@H](CC(C)C)C(=O)N[C@H](C(=O)NCC(N)=O)CSCC(=O)N[C@@H](Cc2ccc(O)cc2)C(=O)N(C)[C@@H](C)C(=O)N[C@@H](CC(N)=O)C(=O)N2CCC[C@H]2C(=O)N[C@@H](CNC(=O)NC(C)=O)C(=O)N[C@@H](CC(C)C)C(=O)N2C[C@H](O)C[C@H]2C(=O)N[C@@H](Cc2c[nH]c3ccccc23)C(=O)N[C@@H](CCNC(N)=O)C(=O)N[C@@H](Cc2cn(CC(=O)O)c3ccccc23)C(=O)N1C [Example 1030] ({CH2CO}-Y[NMeA]NP[Dap](X1)L[Hyp]W[Dab(CONH2)][Trp(1-CH2COOH)][NMeNle][NMeNle]LCG-NH2; thioether N-14) | 4
CCCC[C@H]1C(=O)N(C)[C@@H](CCCC)C(=O)N[C@@H](CC(C)C)C(=O)N[C@H](C(=O)NCC(N)=O)CSCC(=O)N[C@@H](Cc2ccc(O)cc2)C(=O)N(C)[C@@H](C)C(=O)N[C@@H](CC(N)=O)C(=O)N2CCC[C@H]2C(=O)N[C@@H](CNC(=O)NC(C)=O)C(=O)N[C@@H](CC(C)C)C(=O)N2C[C@H](O)C[C@H]2C(=O)N[C@@H](Cc2c[nH]c3ccccc23)C(=O)N[C@@H](CCNC(=O)NC(C)=O)C(=O)N[C@@H](Cc2cn(CC(=O)O)c3ccccc23)C(=O)N1C [Example 1031] ({CH2CO}-Y[NMeA]NP[Dap](X1)L[Hyp]W[Dab](X1)[Trp(1-CH2COOH)][NMeNle][NMeNle]LCG-NH2; thioether N-14) | 4.7
CCCC[C@H]1C(=O)N(C)[C@@H](CCCC)C(=O)N[C@@H](CC(C)C)C(=O)N[C@H](C(=O)NCC(N)=O)CSCC(=O)N[C@@H](Cc2ccc(O)cc2)C(=O)N(C)[C@@H](C)C(=O)N[C@@H](CC(N)=O)C(=O)N2CCC[C@H]2C(=O)N[C@@H](CNC(=O)N(C)C)C(=O)N[C@@H](CC(C)C)C(=O)N2C[C@H](O)C[C@H]2C(=O)N[C@@H](Cc2c[nH]c3ccccc23)C(=O)N[C@@H](CCNC(=O)N(C)C)C(=O)N[C@@H](Cc2cn(CC(=O)O)c3ccccc23)C(=O)N1C [Example 1032] ({CH2CO}-Y[NMeA]NP[Dap]([CO-NMe2])L[Hyp]W[Dab]([CO-NMe2])[Trp(1-CH2COOH)][NMeNle][NMeNle]LCG-NH2; thioether N-14) | 0.74
CCCC[C@H]1C(=O)N(C)[C@@H](CCCC)C(=O)N[C@@H](CC(C)C)C(=O)N[C@H](C(=O)NCC(N)=O)CSCC(=O)N[C@@H](Cc2ccc(O)cc2)C(=O)N(C)[C@@H](C)C(=O)N[C@@H](CC(N)=O)C(=O)N2CCC[C@H]2C(=O)N[C@@H](CNC(=O)NC(c2ccccc2)c2ccccc2)C(=O)N[C@@H](CC(C)C)C(=O)N2C[C@H](O)C[C@H]2C(=O)N[C@@H](Cc2c[nH]c3ccccc23)C(=O)N[C@@H](CCNC(=O)NC(c2ccccc2)c2ccccc2)C(=O)N[C@@H](Cc2cn(CC(=O)O)c3ccccc23)C(=O)N1C [Example 1037] ({CH2CO}-Y[NMeA]NP[Dap]([CO-NHCHPh2])L[Hyp]W[Dab]([CO-NHCHPh2])[Trp(1-CH2COOH)][NMeNle][NMeNle]LCG-NH2; thioether N-14) | 5.1
CCCC[C@H]1C(=O)N(C)[C@@H](CCCC)C(=O)N[C@@H](CC(C)C)C(=O)N[C@H](C(=O)NCC(N)=O)CSCC(=O)N[C@@H](Cc2ccc(O)cc2)C(=O)N(C)[C@@H](C)C(=O)N[C@@H](CC(N)=O)C(=O)N2CCC[C@H]2C(=O)N[C@@H](CNC(=O)NCCc2ccc3c(c2)OCO3)C(=O)N[C@@H](CC(C)C)C(=O)N2C[C@H](O)C[C@H]2C(=O)N[C@@H](Cc2c[nH]c3ccccc23)C(=O)N[C@@H](CCN)C(=O)N[C@@H](Cc2cn(CC(=O)O)c3ccccc23)C(=O)N1C [Example 1039] ({CH2CO}-Y[NMeA]NP[Dap]([CO-NHCH2CH2Ph(3,4-OCH2O)])L[Hyp]W[Dab][Trp(1-CH2COOH)][NMeNle][NMeNle]LCG-NH2; thioether N-14) | 1.5

The remaining compounds from weak to strong by IC50, led by results:

IC50 [nM] | Compound
8.3 | CCCCCCCNC(=O)NCC[C@@H]1NC(=O)[C@H](Cc2c[nH]c3ccccc23)NC(=O)[C@@H]2C[C@@H](O)CN2C(=O)[C@H](CC(C)C)NC(=O)[C@H](CNC(=O)NCCCCCCC)NC(=O)[C@@H]2CCCN2C(=O)[C@H](CC(N)=O)NC(=O)[C@H](C)N(C)C(=O)[C@H](Cc2ccc(O)cc2)NC(=O)CSC[C@@H](C(=O)NCC(N)=O)NC(=O)[C@H](CC(C)C)NC(=O)[C@H](CCCC)N(C)C(=O)[C@H](CCCC)N(C)C(=O)[C@H](Cc2cn(CC(=O)O)c3ccccc23)NC1=O [Example 1035] ({CH2CO}-Y[NMeA]NP[Dap]([CO-NH(heptyl)])L[Hyp]W[Dab]([CO-NH(heptyl)])[Trp(1-CH2COOH)][NMeNle][NMeNle]LCG-NH2; thioether N-14)
7.6 | CCCCCCCNC(=O)NCC[C@@H]1NC(=O)[C@H](Cc2c[nH]c3ccccc23)NC(=O)[C@@H]2C[C@@H](O)CN2C(=O)[C@H](CC(C)C)NC(=O)[C@H](CNC(=O)NCCCCCCC)NC(=O)[C@@H]2CCCN2C(=O)[C@H](CC(N)=O)NC(=O)[C@H](C)N(C)C(=O)[C@H](Cc2ccc(O)cc2)NC(=O)CSC[C@@H](C(=O)NCC(N)=O)NC(=O)[C@H](CC(C)C)NC(=O)[C@H](CCCC)N(C)C(=O)[C@H](CCCC)N(C)C(=O)[C@H](Cc2cn(CC(=O)O)c3ccccc23)NC1=O [Example 1033] ({CH2CO}-Y[NMeA]NP[Dap]([CO-NH(heptyl)])L[Hyp]W[Dab]([CO-NH(heptyl)])[Trp(1-CH2COOH)][NMeNle][NMeNle]LCG-NH2; thioether N-14)
4.9 | CCCC[C@H]1C(=O)N(C)[C@@H](CCCC)C(=O)N[C@@H](CC(C)C)C(=O)N[C@H](C(=O)NCC(N)=O)CSCC(=O)N[C@@H](Cc2ccc(O)cc2)C(=O)N(C)[C@@H](C)C(=O)N[C@@H](CC(N)=O)C(=O)N2CCC[C@H]2C(=O)N[C@@H](CNC(=O)NCC)C(=O)N[C@@H](CC(C)C)C(=O)N2C[C@H](O)C[C@H]2C(=O)N[C@@H](Cc2c[nH]c3ccccc23)C(=O)N[C@@H](CCNC(=O)NCC)C(=O)N[C@@H](Cc2cn(CC(=O)O)c3ccccc23)C(=O)N1C [Example 1029] ({CH2CO}-Y[NMeA]NP[Dap]([CO-NHEt])L[Hyp]W[Dab]([CO-NHEt])[Trp(1-CH2COOH)][NMeNle][NMeNle]LCG-NH2; thioether N-14)
2 | CCCC[C@H]1C(=O)N(C)[C@@H](CCCC)C(=O)N[C@@H](CC(C)C)C(=O)N[C@H](C(=O)NCC(N)=O)CSCC(=O)N[C@@H](Cc2ccc(O)cc2)C(=O)N(C)[C@@H](C)C(=O)N[C@H](CC(N)=O)C(=O)N2CCC[C@H]2C(=O)N[C@@H](CNC(=S)NC)C(=O)N[C@@H](CC(C)C)C(=O)N2C[C@H](O)C[C@H]2C(=O)N[C@@H](Cc2c[nH]c3ccccc23)C(=O)N[C@@H](CCNC(=S)NC)C(=O)N[C@@H](Cc2cn(CC(=O)O)c3ccccc23)C(=O)N1C [Example 1027] ({CH2CO}-Y[NMeA][dN]P[X11]L[Hyp]W[X12][Trp(1-CH2COOH)][NMeNle][NMeNle]LCG-NH2; thioether N-14)
1.4 | CCCC[C@H]1C(=O)N(C)[C@@H](CCCC)C(=O)N[C@@H](CC(C)C)C(=O)N[C@H](C(=O)NCC(N)=O)CSCC(=O)N[C@@H](Cc2ccc(O)cc2)C(=O)N(C)[C@@H](C)C(=O)N[C@@H](CC(N)=O)C(=O)N2CCC[C@H]2C(=O)N[C@@H](CNC(=O)N(C)OC)C(=O)N[C@@H](CC(C)C)C(=O)N2C[C@H](O)C[C@H]2C(=O)N[C@@H](Cc2c[nH]c3ccccc23)C(=O)N[C@@H](CCNC(=O)N(C)OC)C(=O)N[C@@H](Cc2cn(CC(=O)OC)c3ccccc23)C(=O)N1C [Example 1036] ({CH2CO}-Y[NMeA]NP[Dap]([CO-N(Me)OMe])L[Hyp]W[Dab]([CO-N(Me)OMe])[Trp(1-CH2CO2Me)][NMeNle][NMeNle]LCG-NH2; thioether N-14)
